In PubChem BioAssay AID330 (DTP/NCI, 2004):
Several values for one entry are separate records, joined by “and”; a condition that tells them apart may be missing. Equal values may be shown once. Toxic doses and inconclusive results are not listed.

Test system: P388 leukemia ip, CD2F1 mice, survival T/C
Test: NCI In Vivo Anticancer Drug Screen. Data for tumor model P388 Leukemia (intraperitoneal) in CD2F1 (CDF1) mice
Details: endpoint: median survival time, higher = longer survival
In short: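 Mice carrying the transplanted tumor received test compound or vehicle. Survival was recorded in each group, and the value is the treated-group measurement divided by that of the vehicle-treated control group.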

[1] = dose: 12.5 mg/kg/injection, schedule: Q01DX005 (ip), vehicle: saline with Tween-80
[2] = dose: 50.0 mg/kg/injection, schedule: Q01DX005 (ip), vehicle: saline with Tween-80
[3] = dose: 100.0 mg/kg/injection, schedule: Q01DX005 (ip), vehicle: saline with Tween-80
[4] = dose: 200.0 mg/kg/injection, schedule: Q01DX005 (ip), vehicle: saline with Tween-80
[5] = dose: 60.0 mg/kg/injection, schedule: Q01DX005 (ip), vehicle: saline with Tween-80
[6] = dose: 120.0 mg/kg/injection, schedule: Q01DX005 (ip), vehicle: saline with Tween-80
[7] = dose: 240.0 mg/kg/injection, schedule: Q01DX005 (ip), vehicle: saline with Tween-80
[8] = dose: 50.0 mg/kg/injection, schedule: Q01DX005 (ip), vehicle: Klucel (hydroxypropylcellulose) (HPC)
[9] = dose: 12.5 mg/kg/injection, schedule: Q01DX005 (ip), vehicle: Klucel (hydroxypropylcellulose) (HPC)
[10] = dose: 25.0 mg/kg/injection, schedule: Q01DX005 (ip), vehicle: Klucel (hydroxypropylcellulose) (HPC)
[11] = dose: 6.25 mg/kg/injection, schedule: Q01DX005 (ip), vehicle: Klucel (hydroxypropylcellulose) (HPC)
[12] = dose: 100.0 mg/kg/injection, schedule: Q01DX009 (ip), vehicle: saline with Tween-80
[13] = dose: 50.0 mg/kg/injection, schedule: Q01DX009 (ip), vehicle: saline
[14] = dose: 100.0 mg/kg/injection, schedule: Q01DX009 (ip), vehicle: saline
[15] = dose: 100.0 mg/kg/injection, schedule: Q04DX003 (ip), vehicle: saline with Tween-80
[16] = dose: 200.0 mg/kg/injection, schedule: Q04DX003 (ip), vehicle: saline with Tween-80
[17] = dose: 400.0 mg/kg/injection, schedule: Q04DX003 (ip), vehicle: saline with Tween-80
[18] = dose: 200.0 mg/kg/injection, schedule: Q01DX009 (ip), vehicle: saline

## Cc1ccc(-n2cnc3c(N)nc(N)nc32)cc1
dose: 1.56 mg/kg/injection, schedule: Q01DX005 (ip), vehicle: saline with Tween-80
  T/C: 100 % of control
dose: 3.13 mg/kg/injection, schedule: Q01DX005 (ip), vehicle: saline with Tween-80
  T/C: 108 % of control
dose: 6.25 mg/kg/injection, schedule: Q01DX005 (ip), vehicle: saline with Tween-80
  T/C: 108 % of control and 112 % of control
[1]
  T/C: 115 % of control

## COc1ccc(C(=NCCO)c2ccc(O)cc2)c(OC)c1
[2]
  T/C: 104 % of control
[3]
  T/C: 92 % of control
[4]
  T/C: 91 % of control

## COc1ccc(C23OCN(c4ccccc4)C2(c2ccc(OC)cc2)c2ccccc2N3C)cc1 (stereo unspecified)
[5]
  T/C: 103 % of control
[6]
  T/C: 100 % of control
[7]
  T/C: 94 % of control

## N#CCc1nc2ccccc2s1
dose: 30.0 mg/kg/injection, schedule: Q01DX005 (ip), vehicle: saline with Tween-80
  T/C: 102 % of control
[5]
  T/C: 107 % of control
[6]
  T/C: 102 % of control

## O=c1[nH]c(=O)n(C2CC(O)C(CS)O2)cc1F (stereo unspecified)
[8]
  T/C: 115 % of control
dose: 200.0 mg/kg/injection, schedule: Q01DX005 (ip), vehicle: Klucel (hydroxypropylcellulose) (HPC)
  T/C: 150 % of control and 159 % of control
dose: 400.0 mg/kg/injection, schedule: Q01DX005 (ip), vehicle: Klucel (hydroxypropylcellulose) (HPC)
  T/C: 186 % of control

## CCc1nc(N)nc(N)c1-c1ccc(NCCN)c(N)c1
[9]
  T/C: 104 % of control
[10]
  T/C: 101 % of control
[8]
  T/C: 103 % of control and 107 % of control

## CN(C)CCCOc1cccc(NC2=C(Cl)C(=O)C(Nc3cccc(OCCCN(C)C)c3)=C(Cl)C2=O)c1
[11]
  T/C: 99 % of control
[9]
  T/C: 100 % of control
[10]
  T/C: 109 % of control
[8]
  T/C: 100 % of control

## CS(=O)(=O)OCCN(CCOS(C)(=O)=O)c1ccc(C=Nc2ccc3oc(=O)ccc3c2)cc1
dose: 50.0 mg/kg/injection, schedule: Q01DX009 (ip), vehicle: saline with Tween-80
  T/C: 104 % of control
[12]
  T/C: 113 % of control
dose: 132.0 mg/kg/injection, schedule: Q04DX003 (ip), vehicle: saline with Tween-80
  T/C: 150 % of control
dose: 300.0 mg/kg/injection, schedule: Q04DX003 (ip), vehicle: saline with Tween-80
  T/C: 122 % of control

## O=c1nc(-c2ccccc2)cc(CCc2ccccc2)[nH]1
[2]
  T/C: 90 % of control
[3]
  T/C: 89 % of control
[4]
  T/C: 102 % of control

## CCCOC(=O)NC(C)C(=O)NC(CCC(=O)NC(CCCC(N)C(=O)O)C(=O)NC(C)C(=O)O)C(=O)O (stereo unspecified)
dose: 1.56 mg/kg/injection, schedule: Q01DX005 (ip), vehicle: Klucel (hydroxypropylcellulose) (HPC)
  T/C: 100 % of control
dose: 3.12 mg/kg/injection, schedule: Q01DX005 (ip), vehicle: Klucel (hydroxypropylcellulose) (HPC)
  T/C: 103 % of control
[11]
  T/C: 100 % of control
[9]
  T/C: 95 % of control and 96 % of control
[10]
  T/C: 86 % of control
[8]
  T/C: 100 % of control

## COS(C)=O (stereo unspecified)
[13]
  T/C: 99 % of control
[14]
  T/C: 99 % of control

## COC(=O)[CH](C[N+](=O)[O-])[Hg][Cl] (stereo unspecified)
dose: 3.12 mg/kg/injection, schedule: Q01DX009 (ip), vehicle: saline with Tween-80
  T/C: 100 % of control
dose: 6.25 mg/kg/injection, schedule: Q01DX009 (ip), vehicle: saline with Tween-80
  T/C: 100 % of control
dose: 12.5 mg/kg/injection, schedule: Q01DX009 (ip), vehicle: saline with Tween-80
  T/C: 95 % of control

## O=C(CCCCl)Oc1ccccc1
[15]
  T/C: 100 % of control
[16]
  T/C: 109 % of control
[17]
  T/C: 104 % of control

## N#CCCN/N=C\c1ccc2c(c1)OCO2
[15]
  T/C: 102 % of control
[16]
  T/C: 96 % of control
[17]
  T/C: 92 % of control

## COC1OC(COS(C)(=O)=O)C(O)C(O)C1OS(C)(=O)=O (stereo unspecified)
[13]
  T/C: 110 % of control
[14]
  T/C: 106 % of control
[18]
  T/C: 106 % of control

## CCc1nc(N)nc(N)c1-c1ccc(Cl)c(Cl)c1.[Cl][Pd][Cl]
dose: 12.5 mg/kg/injection, schedule: Q04DX003 (ip), vehicle: saline with Tween-80
  T/C: 95 % of control

## COc1ccc(C2OC3=C(Nc4ccc(Cl)cc4N3)C2=O)c(OC)c1 (stereo unspecified)
dose: 0.94 mg/kg/injection, schedule: Q01DX005 (ip), vehicle: Klucel (hydroxypropylcellulose) (HPC)
  T/C: 99 % of control
dose: 1.88 mg/kg/injection, schedule: Q01DX005 (ip), vehicle: Klucel (hydroxypropylcellulose) (HPC)
  T/C: 91 % of control
dose: 3.75 mg/kg/injection, schedule: Q01DX005 (ip), vehicle: Klucel (hydroxypropylcellulose) (HPC)
  T/C: 95 % of control
dose: 15.0 mg/kg/injection, schedule: Q01DX005 (ip), vehicle: Klucel (hydroxypropylcellulose) (HPC)
  T/C: 91 % of control
dose: 30.0 mg/kg/injection, schedule: Q01DX005 (ip), vehicle: Klucel (hydroxypropylcellulose) (HPC)
  T/C: 92 % of control
dose: 120.0 mg/kg/injection, schedule: Q01DX005 (ip), vehicle: Klucel (hydroxypropylcellulose) (HPC)
  T/C: 90 % of control and 93 % of control

## COc1cc(C=Nc2c[nH]c(=O)[nH]c2=O)ccc1O
[13]
  T/C: 93 % of control
[14]
  T/C: 96 % of control
[18]
  T/C: 98 % of control

## CCCCCCCCCCCCCCCCOc1ccc(S(=O)(=O)N/N=c2/sc3ccc(S(=O)(=O)O)cc3n2C)cc1C(=O)O
dose: 25.0 mg/kg/injection, schedule: Q01DX009 (ip), vehicle: saline
  T/C: 99 % of control
[13]
  T/C: 100 % of control
[12]
  T/C: 102 % of control
[14]
  T/C: 86 % of control

## CC(C)=CCOc1cc(O)c(CC2=C(O)C(C)(C)C(=O)C(C(=O)C(C)C)=C2O)c(O)c1C(=O)c1ccccc1
dose: 0.83 mg/kg/injection, schedule: Q01DX005 (ip), vehicle: DMSO
  T/C: 110 % of control
dose: 1.65 mg/kg/injection, schedule: Q01DX005 (ip), vehicle: DMSO
  T/C: 103 % of control
dose: 3.3 mg/kg/injection, schedule: Q01DX005 (ip), vehicle: DMSO
  T/C: 103 % of control
dose: 6.6 mg/kg/injection, schedule: Q01DX005 (ip), vehicle: DMSO
  T/C: 88 % of control

## CCCCCCCCN1CSC(=S)N(c2ccc3[nH]c(=S)sc3c2)C1
dose: 6.25 mg/kg/injection, schedule: Q01DX009 (ip), vehicle: Klucel (hydroxypropylcellulose) (HPC)
  T/C: 94 % of control
dose: 12.5 mg/kg/injection, schedule: Q01DX009 (ip), vehicle: Klucel (hydroxypropylcellulose) (HPC)
  T/C: 106 % of control
dose: 25.0 mg/kg/injection, schedule: Q01DX009 (ip), vehicle: Klucel (hydroxypropylcellulose) (HPC)
  T/C: 94 % of control

## Cc1ccc([NH-])c(C(=O)O)c1.Cc1ccc([NH-])c(C(=O)O)c1.[Cu+2]
[1]
  T/C: 96 % of control
dose: 25.0 mg/kg/injection, schedule: Q01DX005 (ip), vehicle: saline with Tween-80
  T/C: 100 % of control
[2]
  T/C: 94 % of control

## O=C(O)c1cc(C(=O)O)c(C(=O)O)cc1C(=O)O.[NH2-].[NH2-].[NH2-].[NH2-].[Pt+2].[Pt+2]
dose: 0.78 mg/kg/injection, schedule: Q01DX005 (ip), vehicle: water
  T/C: 106 % of control
dose: 1.56 mg/kg/injection, schedule: Q01DX005 (ip), vehicle: suspension in saline
  T/C: 108 % of control
dose: 1.56 mg/kg/injection, schedule: Q01DX005 (ip), vehicle: water
  T/C: 115 % of control
dose: 3.12 mg/kg/injection, schedule: Q01DX005 (ip), vehicle: saline
  T/C: 113 % of control
dose: 3.13 mg/kg/injection, schedule: Q01DX005 (ip), vehicle: water
  T/C: 119 % of control
dose: 6.25 mg/kg/injection, schedule: Q01DX005 (ip), vehicle: saline
  T/C: 105 % of control
dose: 6.25 mg/kg/injection, schedule: Q01DX005 (ip), vehicle: suspension in saline
  T/C: 118 % of control
dose: 9.0 mg/kg/injection, schedule: Q01DX005 (ip), vehicle: suspension in saline
  T/C: 110 % of control
dose: 12.5 mg/kg/injection, schedule: Q01DX005 (ip), vehicle: suspension in saline
  T/C: 161 % of control
dose: 12.5 mg/kg/injection, schedule: Q01DX005 (ip), vehicle: water
  T/C: 166 % of control
dose: 25.0 mg/kg/injection, schedule: Q01DX005 (ip), vehicle: saline
  T/C: 153 % of control
dose: 25.0 mg/kg/injection, schedule: Q01DX005 (ip), vehicle: suspension in saline
  T/C: 174 % of control and 176 % of control
dose: 41.67 mg/kg/injection, schedule: Q01DX005 (ip), vehicle: suspension in saline
  T/C: 150 % of control
dose: 50.0 mg/kg/injection, schedule: Q01DX005 (ip), vehicle: saline
  T/C: 186 % of control

## Cc1cccc(/C=C/c2csnn2)n1
[5]
  T/C: 105 % of control
[6]
  T/C: 104 % of control
[7]
  T/C: 96 % of control
